Test results published in patent publication US20140276107A1, “PHOTODYNAMIC DIAGNOSIS” (Photocure ASA, priority 2011, published 2014).

How the values were obtained:
[1] = test system: normal and Barrett's tissue of the esophagus; test: Spectrofluorimetry (LIFS) of PpIX fluorescence intensity in the esophagus of patients suffering from Barrett's esophagus; format: in vivo, human; details: for porphyrin (PpIX) fluorescence in normal tissue compared to Barrett's tissue: ALA 20 mg/kg orally 4-5 hours before endoscopy (5 subjects), HAL 8 mM solution by local instillation 2 hours before endoscopy (3 subjects)
Experimental: Spectrofluorimetry (LIFS) measurements (fluorescence intensity of PpIX in the esophagus) were carried out on 8 patients suffering from Barrett's esophagus. The measurements were carried out after oral administration of 5-ALA (ALA) or local instillation of 5-ALA hexyl ester (HAL) and the fluorescence intensity of normal and Barrett's tissue was compared.
LIFS was carried out using the Karl Storz D-light system. Abnormal cells could be clearly delineated against normal tissue due to the porphyrin fluorescence resulting from an accumulation of the ALA or HAL in the abnormal tissue. For this purpose, blue light of a specific spectral composition was introduced into the body via an endoscopic light guide system. • Patient group 1: 5 subjects each received 20 mg/kg body weight ALA orally, 4-5 hours before endoscopy. • Patient group 2: 3 subjects each received a 8 mM solution of HAL in an aqueous buffer by local instillation (100 mg in 50 mL, i.e. 0.2%), 2 hours before endoscopy.

[2] = test system: dysplastic tissue in Barrett's esophagus; details: cited from earlier work

Row | SMILES | porphyrin (PpIX) fluorescence in normal tissue compared to Barrett's tissue ([1]; FIG. 1) | distinction of high-grade dysplastic from non-dysplastic epithelial tissue ([2]; Brand et al. 2002) | detection of high-grade intraepithelial neoplasia and adenocarcinoma ([2]; Stepinac et al. 2003) | detection of low-grade neoplastic tissue ([2]; Stepinac et al. 2003) | specificity for detection of dysplastic tissue ([2]; systemic application of 5-ALA at 20 mg/kg and 30 mg/kg, high rate of false positive fluorescence) | intensity of fluorescence in the normal epithelium, HAL versus ALA ([1]; FIG. 1, normal epithelium, HAL 8 mM local instillation vs ALA 20 mg/kg orally) | fluorescence intensity of PpIX in the Barrett and normal mucosa ([1]; FIG. 2, one of the patients receiving HAL) | intensity of fluorescence in the normal and Barrett epithelium, HAL compared to ALA ([1]; normal and Barrett epithelium, background fluorescence)
1 | NCC(=O)CCC(=O)O [ALA, 5-aminolevulinic acid] | significantly higher in normal tissue compared to Barrett's tissue | can distinguish | effective | not accurate | poor | – | – | –
2 | CCCCCCOC(=O)CCC(=O)CN [HAL, 5-ALA hexyl ester] | significantly higher in normal tissue compared to Barrett's tissue | – | – | – | – | lower | stronger intensity for the normal mucosa | lower intensity of fluorescence
